Here are results for 13 compounds from US10413557B2, “Prodrugs of 17.BETA.-HSD1-inhibitors” (FORENDO PHARMA LTD, priority 2014, dated 2019).

Usually inhibition stands for the relative decrease from the control value, in per cent.

Series [1] has as its target T1, recombinant human 17β-HSD1 (Homo sapiens, UniProt P14061).
T1 construct: made in house; host or cells: Sd9 (Sf9) insect cells, baculovirus (Bac to Bac Expression System)
T1 sequence (P14061 1-328): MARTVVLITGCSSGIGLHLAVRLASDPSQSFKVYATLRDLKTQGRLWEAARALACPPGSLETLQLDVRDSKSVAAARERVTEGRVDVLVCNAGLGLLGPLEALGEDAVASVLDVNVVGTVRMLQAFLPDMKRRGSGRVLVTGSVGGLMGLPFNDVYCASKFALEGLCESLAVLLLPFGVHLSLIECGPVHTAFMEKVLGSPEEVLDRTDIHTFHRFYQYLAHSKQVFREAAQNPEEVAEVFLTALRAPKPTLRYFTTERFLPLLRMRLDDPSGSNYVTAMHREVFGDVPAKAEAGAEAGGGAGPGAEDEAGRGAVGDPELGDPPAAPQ
Description: Inhibition of recombinant human 17β-HSD1 (conversion of 3H-estrone to estradiol, HPLC). Format: biochemical. To be noted: inhibitor 1 μM, 30 nM estrone, 1 mM NADPH, 30 min RT; for inhibition at 1 µM: read-out: 17β-HDS1 Inhibition % at 1 μM. On the procedure: 17β-HSD1 production and isolation: Recombinant baculovirus was generated by the “Bac to Bac Expression System” (Invitrogen). Recombinant bacmid was transfected to Sd9 insect cells using “Cellfectin Reagent” (Invitrogen). 60 h later cells were harvested; the microsomal fraction was isolated as described by Puranen, T. J., Poutanen, M. H., Peltoketo, H. E., Vihko, P. T. and Vihko, R. K. (1994) Site-directed mutagenesis of the putative active site of human 17 β-hydroxysteroid dehydrogenase type 1. Biochem. J. 304: 289-293. Aliquots were stored frozen until determination of enzymatic activity.
Assay—Inhibition of recombinant human 17β-HSD1: Protein homogenate (0.1 μg/ml) was incubated in 20 mM KH2PO4 pH 7.4 with 30 nM estrone (including 800 000 cpm/ml of ^3H-estrone) and 1 mM NADPH for 30 min at RT, in the presence of the potential inhibitor at concentrations 1 μM or 0.1 μM. Inhibitor stock solutions were prepared in DMSO. Final concentration of DMSO was adjusted to 1% in all samples. The enzyme reaction was stopped by addition of 10% trichloroacetic acid (final concentration). Samples were centrifuged in a microtiter plate at 4000 rpm for 10 min. Supernatants were applied to reverse phase HPLC on a Waters Symmetry C18 column, equipped with a Waters Sentry Guard column. Isocratic HPLC runs were performed at RT at a flow rate of 1 ml/min in acetonitrile:water 48:52 as running solvent. Radioactivity was monitored in the eluate by a Packard Flow Scintillation Analyzer. Total radioactivity for estrone and estradiol were determined in each sample and percent conversion of estrone to estradiol was calculated according to the following formula:
(§1) Percent inhibition was calculated flowingly: % inhibition=100−% conversion

The target in series [2] is T2, recombinant human 17β-HSD2 (Homo sapiens, UniProt P37059).
T2 construct: made in house; host or cells: Sd9 (Sf9) insect cells, baculovirus (Bac to Bac Expression System)
T2 sequence (P37059 1-387): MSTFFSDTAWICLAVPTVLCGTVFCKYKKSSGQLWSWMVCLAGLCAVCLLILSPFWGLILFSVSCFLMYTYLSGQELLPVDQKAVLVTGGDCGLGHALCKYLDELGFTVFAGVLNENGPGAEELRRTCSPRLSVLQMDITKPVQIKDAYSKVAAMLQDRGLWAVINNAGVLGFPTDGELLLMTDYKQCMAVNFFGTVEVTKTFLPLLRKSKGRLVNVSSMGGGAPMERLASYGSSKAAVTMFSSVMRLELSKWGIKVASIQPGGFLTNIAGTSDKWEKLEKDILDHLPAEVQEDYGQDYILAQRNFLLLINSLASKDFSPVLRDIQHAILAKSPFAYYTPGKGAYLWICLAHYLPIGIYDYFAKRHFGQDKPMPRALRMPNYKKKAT
Description: Inhibition of recombinant human 17β-HSD2 (conversion of 3H-estradiol to estrone, HPLC). To be noted: inhibitor 1 μM; 50 nM estradiol, 1 mM NADH, 30 min RT. It counts as biochemical. On the procedure:
17β-HSD2 production and isolation: Similarly to 17β-HSD1 the Recombinant baculovirus was generated by the “Bac to Bac Expression System” (Invitrogen). Recombinant bacmid was transfected to Sd9 insect cells using “Cellfectin Reagent” (Invitrogen). 60 h later cells were harvested and supernatant were fractionated by the following protocol: • cells were dissolved into 40 ml of A-buffer (40 mM TRIS, pH8.0, 20% glycerol, 20 μM NAD, 0.4 mM PMSF, 150 mM NaCl, 0.5% dodecyl-β-maltoside+protease inhibitor cocktail) • cells were sonicated • lysate was incubated on ice for 15 min • lysate was centrifuged 5000 rpm 15 min, +4° C. • centrifugation of the supernatant 180 000 g 30 min, +4° C. • pellet was dissolved into 8 ml of A-buffer • not resuspended material was removed by centrifugation 5000 rpm 15 min, +4° C. • the clear supernatant was divided into 100 μl aliquots and were stored frozen until determination of enzymatic activity.
The amount of 17β-HSD2 was analysed by immunoblotting and total protein concentration of each extract batch was determined.
Assay—Inhibition of recombinant human 17β-HSD2: Protein homogenate (4 μg/ml) was incubated in 20 mM KH2PO4 pH 8.5 with 50 nM estradiol (including 800 000 cpm/ml of ^3H-estradiol) and 1 mM […] for 30 min at RT, in the presence of the potential inhibitor at concentrations 1 μM or 0.1 μM. Inhibitor stock solutions were prepared in DMSO. Final concentration of DMSO was adjusted to 1% in all samples. The enzyme reaction was stopped by addition of 10% trichloroacetic acid (final concentration). Samples were centrifuged in a microtiter plate at 4000 rpm for 10 min. Supernatants were applied to reverse phase HPLC on a Waters Symmetry C18 column, equipped with a Waters Sentry Guard column. Isocratic HPLC runs were performed at RT at a flow rate ofl ml/min in acetonitrile:water 48:52 as running solvent. Radioactivity was monitored in the eluate by a Packard Flow Scintillation Analyzer. Total radioactivity for estrone and estradiol were determined in each sample and percent conversion of estradiol to estrone was calculated according to the following formula:
as §1

Series [3] can be described thus: Metabolic stability assay. Format: in vitro ADME. The conditions noted are these: human liver homogenate or microsomes. The method, then:
The in vitro metabolic stability of the parent compounds was determined for exemplified compounds using human liver microsome and homogenate incubations. The incubation time points used with or without appropriate cofactors were 0 min and 60 min. Samples were collected at both time points and substrates were detected using LC/PDA/TOF-MS. In vitro metabolic stability (% remaining after 60 min in human liver homogenate or microsomes) of the compounds were calculated and the results are summarized in Table 4.

Consider “3-{(13S,15R)-2-Fluoro-3-hydroxy-17-[(E)-methoxyimino]-13-methyl-7,8,9,11,12,13,14,15,16,17-decahydro-6H-cyclopenta[a]phenanthren-15-yl}-N-(5-methylthiazol-2-yl)propanamide [VIV-15]”, for which, in series [1], the “17β-HDS1 Inhibition % at 1 μM” value was 94%. The “17β-HSD2 Inhibition % at 1 μM” value in series [2] was determined as 5%. Besides, the “In vitro metabolic stability, % remaining after 60 min” value in series [3] was 92%.

For “3-{(13S,15R)-4-Fluoro-3-hydroxy-17-[(E)-methoxyimino]-13-methyl-7,8,9,11,12,13,14,15,16,17-decahydro-6H-cyclopenta[a]phenanthren-15-yl}-N-(5-methylthiazol-2-yl)propanamide [VIV-16]”, the “17β-HDS1 Inhibition % at 1 μM” value in series [1] is on record as 90%. In addition, the “17β-HSD2 Inhibition % at 1 μM” value in series [2] was 7%. The “In vitro metabolic stability, % remaining after 60 min” value in series [3] stood at 68%.

Consider `Cc1cnc(NC(=O)CC[C@@H]2CC(=O)[C@@]3(C)CCC4c5ccc(O)cc5CCC4C23)s1` (stereo partly shown) [VII, reference compound], for which, in series [3], the “In vitro metabolic stability, % remaining after 60 min” value was 13%.

In the case of `CO/N=C1\C[C@@H](CCC(=O)Nc2ncc(C)s2)C2C3CCc4cc(O)c(Br)cc4C3CC[C@]12C` (stereo partly drawn) [VIV-9, 3-{(13S,15R)-2-Bromo-3-hydroxy-17-[(E)-methoxyimino]-13-methyl-7,8,9,11,12,13,14,15,16,17-decahydro-6H-cyclopenta[a]phenanthren-15-yl}-N-(5-methylthiazol-2-yl)-propanamide], the inhibition at 1 µM was determined as 81% in series [1] and 1% in series [2]. Also, the “In vitro metabolic stability, % remaining after 60 min” value in series [3] stood at 34%.

As for `Cc1cnc(NC(=O)CC[C@@H]2C/C(=N\O)[C@@]3(C)CCC4c5cc([N+](=O)[O-])c(O)cc5CCC4C23)s1` (stereo partly drawn) [VIV-23, 3-{(13S,15R)-3-Hydroxy-2-nitro-17-[(E)-hydroxyimino]-13-methyl-7,8,9,11,12,13,14,15,16,17-decahydro-6H-cyclopenta[a]phenanthren-15-yl}-N-(5-methylthiazol-2-yl)propanamide], the inhibition at 1 µM in series [1] came to 95%; in series [2] it was 6%.

With `Cc1cnc(NC(=O)CC[C@@H]2C/C(=N\O)[C@@]3(C)CCC4c5ccc(O)c([N+](=O)[O-])c5CCC4C23)s1` (stereo partly drawn) [VIV-24, 3-{(13S,15R)-3-Hydroxy-4-nitro-17-[(E)-hydroxyimino]-13-methyl-7,8,9,11,12,13,14,15,16,17-decahydro-6H-cyclopenta[a]phenanthren-15-yl}-N-(5-methylthiazol-2-yl)propanamide], the values for the inhibition at 1 µM in series [1] and in series [2] were 96% and 33%, respectively.

Take `Cc1cnc(NC(=O)CC[C@@H]2C/C(=N\O)[C@@]3(C)CCC4c5cc(Br)c(O)cc5CCC4C23)s1` (stereo partly drawn) [VIV-25, 3-{(13S,15R)-2-Bromo-3-hydroxy-17-[(E)-hydroxyimino]-13-methyl-7,8,9,11,12,13,14,15,16,17-decahydro-6H-cyclopenta[a]phenanthren-15-yl}-N-(5-methylthiazol-2-yl)propanamide]: the inhibition at 1 µM in series [1] is 77%; in series [2] it was 25%.

On to `Cc1cnc(NC(=O)CC[C@@H]2C/C(=N\O)[C@@]3(C)CCC4c5ccc(O)c(Br)c5CCC4C23)s1` (stereo partly drawn) [VIV-26, 3-{(13S,15R)-4-Bromo-3-hydroxy-17-[(E)-hydroxyimino]-13-methyl-7,8,9,11,12,13,14,15,16,17-decahydro-6H-cyclopenta[a]phenanthren-15-yl}-N-(5-methylthiazol-2-yl)propanamide], for which the inhibition at 1 µM in series [1] stood at 89%; in series [2] it was 15%.

`Cc1cnc(NC(=O)CC[C@@H]2C/C(=N\O)[C@@]3(C)CCC4c5cc(Br)c(O)c(Br)c5CCC4C23)s1` (stereo partly drawn) [VIV-27, 3-{(13S,15R)-2,4-Dibromo-3-hydroxy-17-[(E)-hydroxyimino]-13-methyl-7,8,9,11,12,13,14,15,16,17-decahydro-6H-cyclopenta[a]phenanthren-15-yl}-N-(5-methylthiazol-2-yl)propanamide]: the values for the inhibition at 1 µM in series [1] and in series [2] were 98% and 28%, respectively.

Take `Cc1cnc(NC(=O)CC[C@@H]2C/C(=N\O)[C@@]3(C)CCC4c5cc(Cl)c(O)cc5CCC4C23)s1` (stereo partly drawn) [VIV-28, 3-{(13S,15R)-2-Chloro-3-hydroxy-17-[(E)-hydroxyimino]-13-methyl-7,8,9,11,12,13,14,15,16,17-decahydro-6H-cyclopenta[a]phenanthren-15-yl}-N-(5-methylthiazol-2-yl)propanamide]: the inhibition at 1 µM in series [1] amounted to 98%; in series [2], 21%.

On to `Cc1cnc(NC(=O)CC[C@@H]2C/C(=N\O)[C@@]3(C)CCC4c5ccc(O)c(Cl)c5CCC4C23)s1` (stereo partly drawn) [VIV-29, 3-{(13S,15R)-4-Chloro-3-hydroxy-17-[(E)-hydroxyimino]-13-methyl-7,8,9,11,12,13,14,15,16,17-decahydro-6H-cyclopenta[a]phenanthren-15-yl}-N-(5-methylthiazol-2-yl)propanamide], for which the inhibition at 1 µM in series [1] was found to be 98%; in series [2] it was 21%.

For the compound `Cc1cnc(NC(=O)CC[C@@H]2C/C(=N\O)[C@@]3(C)CCC4c5cc(Cl)c(O)c(Cl)c5CCC4C23)s1` (stereo partly drawn) [VIV-30, 3-{(13S,15R)-2,4-Dichloro-3-hydroxy-17-[(E)-hydroxyimino]-13-methyl-7,8,9,11,12,13,14,15,16,17-decahydro-6H-cyclopenta[a]phenanthren-15-yl}-N-(5-methylthiazol-2-yl)propanamide], the inhibition at 1 µM in series [1] worked out at 87%; in series [2] it was 23%.

On to `Cc1cnc(NC(=O)CC[C@@H]2C/C(=N\O)[C@@]3(C)CCC4c5cc(F)c(O)cc5CCC4C23)s1` (stereo partly drawn) [VIV-31, 3-{(13S,15R)-2-Fluoro-3-hydroxy-17-[(E)-hydroxyimino]-13-methyl-7,8,9,11,12,13,14,15,16,17-decahydro-6H-cyclopenta[a]phenanthren-15-yl}-N-(5-methylthiazol-2-yl)propanamide], for which the inhibition at 1 µM in series [1] came out at 97%; in series [2] it was 14%.
